The record followed here is PubChem BioAssay (NCI).

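Step 1: Grow cells in 96-well plates. Step 2: Expose to compound for 48 hours at 5 concentrations. Step 3: Interpolate endpoints linearly; if unreached, use highest concentration. GI50: concentration for 50% inhibition of growth. TGI denotes the concentration required for complete inhibition of growth.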 Some results are limits rather than exact numbers.

Test systems include CCRF-CEM leukemia; HL-60(TB) leukemia; LOX IMVI melanoma; NCI-H23 lung; RPMI-8226 leukemia; SK-MEL-2 melanoma; SK-OV-3 ovarian; SNB-19 CNS; U251 CNS; UACC-257 melanoma.
Test in all cases: NCI tumour cell line growth inhibition, 48 h

Turning to `O=C(Cn1c(C(=O)c2ccccc2)nc2ccccc21)c1ccc(F)cc1`, the GI50 is 5.75 µM in the experiment with CCRF-CEM leukemia; 1.65 µM with HL-60(TB) leukemia; 7.26 µM in the experiment with LOX IMVI melanoma; 19.4 µM with NCI-H23 lung; 3.47 µM with RPMI-8226 leukemia; 17.4 µM in the experiment on SK-MEL-2 melanoma. Also, the GI50 with SK-OV-3 ovarian is 32.7 µM; in the experiment on SNB-19 CNS, 25.2 µM; in the experiment with U251 CNS it was 4.11 µM; with UACC-257 melanoma it was 74.3 µM. For the same compound, the TGI is over 100 µM in the experiment on CCRF-CEM leukemia; 5.9 µM in the experiment on HL-60(TB) leukemia; over 100 µM in the experiment with LOX IMVI melanoma; over 100 µM in the experiment on NCI-H23 lung; over 52.5 µM in the experiment on RPMI-8226 leukemia; over 74 µM with SK-MEL-2 melanoma. The TGI in the experiment on SK-OV-3 ovarian, in the experiment with SNB-19 CNS, with U251 CNS and in the experiment with UACC-257 melanoma was over 100 µM in each case.
For the compound `COc1ccc2c(c1)N(CCO)C1=C(C(=O)OC1)C2c1ccccc1` (centres undefined), the GI50 in the experiment on CCRF-CEM leukemia was 1.91 µM; with HL-60(TB) leukemia, 1.15 µM; in the experiment on LOX IMVI melanoma, 2.92 µM; in the experiment with NCI-H23 lung, 1.94 µM; in the experiment on RPMI-8226 leukemia it was 1.78 µM; with SK-MEL-2 melanoma, 1.61 µM. In addition, the GI50 in the experiment on SK-OV-3 ovarian is 1.9 µM; in the experiment with SNB-19 CNS, 2.32 µM; in the experiment with U251 CNS, 1.81 µM; in the experiment on UACC-257 melanoma, 1.87 µM. Also, the TGI was over 50 µM in the experiment with CCRF-CEM leukemia; 2.84 µM in the experiment on HL-60(TB) leukemia; over 50 µM with LOX IMVI melanoma; over 50 µM with NCI-H23 lung; over 50 µM in the experiment on RPMI-8226 leukemia; 4.74 µM in the experiment on SK-MEL-2 melanoma. The TGI with SK-OV-3 ovarian, in the experiment on SNB-19 CNS, in the experiment with U251 CNS and with UACC-257 melanoma was over 50 µM in each case.
On to `CC1=NN(C(=O)c2ccncc2)C(=O)C1N=Nc1ccc2ccccc2c1` (centres undefined), for which the TGI in the experiment with CCRF-CEM leukemia was over 100 µM; with HL-60(TB) leukemia, over 20.6 µM; in the experiment on LOX IMVI melanoma, over 100 µM; with NCI-H23 lung, over 100 µM; with RPMI-8226 leukemia, over 100 µM; in the experiment on SK-MEL-2 melanoma, over 95.2 µM. For the same compound, the TGI in the experiment on SK-OV-3 ovarian, in the experiment on SNB-19 CNS, in the experiment on U251 CNS and with UACC-257 melanoma was over 100 µM in each case.
Consider `COc1ccc(NC(=O)CCc2cc(C(C)(C)C)n[nH]2)cc1`, for which the TGI with CCRF-CEM leukemia, in the experiment with HL-60(TB) leukemia, with LOX IMVI melanoma, with NCI-H23 lung, in the experiment with RPMI-8226 leukemia and in the experiment with SK-MEL-2 melanoma was over 100 µM in each case. Moreover, the TGI in the experiment with SK-OV-3 ovarian, in the experiment with SNB-19 CNS, in the experiment on U251 CNS and in the experiment on UACC-257 melanoma was over 100 µM throughout.
For `CC(=O)NC(CCCCN(Cc1ccccc1)C(=O)N(CCCl)N=O)C(=O)NCc1ccccc1` (centres undefined), the TGI was over 84.3 µM in the experiment on CCRF-CEM leukemia; 65.4 µM in the experiment with HL-60(TB) leukemia; over 58.1 µM with LOX IMVI melanoma; 50.3 µM with NCI-H23 lung; 79 µM in the experiment with RPMI-8226 leukemia; 62.2 µM in the experiment on SK-MEL-2 melanoma. For the same compound, the TGI in the experiment on SK-OV-3 ovarian was over 76.3 µM; with SNB-19 CNS, 60.4 µM; in the experiment with U251 CNS it was 39.7 µM; in the experiment on UACC-257 melanoma it was over 44.6 µM.
Consider `CC(=O)O[C@H]1C(=O)[C@@]2(C)[C@H]([C@H](OC(=O)c3ccccc3)[C@@]3(O)C[C@H](O)C(C)=C1C3(C)C)[C@]1(OC(C)=O)CO[C@@H]1C[C@@H]2O`, for which the TGI with CCRF-CEM leukemia, in the experiment with HL-60(TB) leukemia, in the experiment with LOX IMVI melanoma, in the experiment with NCI-H23 lung, in the experiment on RPMI-8226 leukemia and in the experiment on SK-MEL-2 melanoma was over 100 µM throughout. Also, the TGI in the experiment on SK-OV-3 ovarian was 69.1 µM; with SNB-19 CNS, over 100 µM; in the experiment with U251 CNS, over 100 µM; with UACC-257 melanoma it was over 100 µM.
On to `COc1cc(-c2ccc(NC(=O)NC3CC3)c(OC)c2)ccc1NC(=O)NC1CC1`, for which the GI50 is 4.34 µM in the experiment on CCRF-CEM leukemia; 3.75 µM in the experiment on HL-60(TB) leukemia; 3.15 µM in the experiment with LOX IMVI melanoma; over 68.5 µM with NCI-H23 lung; 2.47 µM with RPMI-8226 leukemia; 35.5 µM in the experiment on SK-MEL-2 melanoma. Also, the GI50 in the experiment with SK-OV-3 ovarian is 23.8 µM; in the experiment with SNB-19 CNS, 8.87 µM; in the experiment with U251 CNS, 3.11 µM; in the experiment on UACC-257 melanoma, 12.4 µM. The TGI in the experiment on CCRF-CEM leukemia is over 100 µM; with HL-60(TB) leukemia it was over 100 µM; in the experiment with LOX IMVI melanoma it was over 83.8 µM; with NCI-H23 lung, over 100 µM; in the experiment with RPMI-8226 leukemia it was over 24.7 µM; in the experiment on SK-MEL-2 melanoma, over 100 µM. Also, the TGI in the experiment with SK-OV-3 ovarian is over 100 µM; in the experiment on SNB-19 CNS it was over 100 µM; in the experiment on U251 CNS it was over 69.3 µM; with UACC-257 melanoma, over 100 µM.
For the compound `CCOC(=O)c1csc(NC(=O)COc2cccc(/C=C3\CSc4ccccc4C3=O)c2)n1`, the GI50 in the experiment on CCRF-CEM leukemia was 0.472 µM; in the experiment on HL-60(TB) leukemia, 0.638 µM; in the experiment on LOX IMVI melanoma, 0.071 µM; in the experiment on NCI-H23 lung, 0.105 µM; in the experiment with RPMI-8226 leukemia, over 100 µM; in the experiment on SK-MEL-2 melanoma it was 0.448 µM. Moreover, the GI50 in the experiment on SK-OV-3 ovarian is 13.1 µM; in the experiment on SNB-19 CNS, 9.19 µM; in the experiment with U251 CNS, 0.585 µM; in the experiment with UACC-257 melanoma, 5.72 µM. For the same compound, the TGI in the experiment with HL-60(TB) leukemia was 2.11 µM; with LOX IMVI melanoma, 0.208 µM; with NCI-H23 lung, 0.57 µM; in the experiment on RPMI-8226 leukemia it was over 100 µM; in the experiment with SK-MEL-2 melanoma, 0.989 µM; in the experiment with SK-OV-3 ovarian it was 25.9 µM. For the same compound, the TGI in the experiment with SNB-19 CNS worked out at 22.7 µM; in the experiment with U251 CNS it was 1.31 µM; with UACC-257 melanoma, 16.7 µM.
With `Cc1cn2c(/C=C3/C(=O)Nc4ccc(F)cc43)c(C)nc2s1`, the GI50 with CCRF-CEM leukemia is 14.8 µM; in the experiment with HL-60(TB) leukemia, 1.98 µM; in the experiment with LOX IMVI melanoma it was 10.3 µM; in the experiment on NCI-H23 lung, 7.85 µM; in the experiment with RPMI-8226 leukemia it was 20.3 µM; in the experiment with SK-MEL-2 melanoma, 8.76 µM. The GI50 with SK-OV-3 ovarian is 10.6 µM; in the experiment on SNB-19 CNS, 5.56 µM; in the experiment on U251 CNS, 5.96 µM; in the experiment on UACC-257 melanoma it was 36.2 µM. The TGI with CCRF-CEM leukemia was over 50 µM; in the experiment on HL-60(TB) leukemia it was 8.15 µM; with LOX IMVI melanoma it was over 50 µM; in the experiment with NCI-H23 lung, over 50 µM; with RPMI-8226 leukemia, over 50 µM; in the experiment with SK-MEL-2 melanoma, over 50 µM. The TGI in the experiment with SK-OV-3 ovarian, in the experiment on SNB-19 CNS, in the experiment on U251 CNS and in the experiment on UACC-257 melanoma was over 50 µM each time.
Turning to `CCc1nc2cc(/C=C/C(=O)NO)ccc2c(=O)n1CCc1ccc(F)cc1`, the GI50 was 1.39 µM in the experiment on CCRF-CEM leukemia; 4.59 µM with HL-60(TB) leukemia; 1.35 µM in the experiment on LOX IMVI melanoma; 1.62 µM in the experiment on NCI-H23 lung; 0.99 µM in the experiment on RPMI-8226 leukemia; 2.9 µM with SK-MEL-2 melanoma. For the same compound, the GI50 with SK-OV-3 ovarian is 1.93 µM; in the experiment on SNB-19 CNS, 1.82 µM; in the experiment with U251 CNS it was 1.31 µM; in the experiment with UACC-257 melanoma, 2.24 µM. Also, the TGI in the experiment with CCRF-CEM leukemia was over 100 µM; in the experiment with HL-60(TB) leukemia, over 100 µM; in the experiment on LOX IMVI melanoma, 2.78 µM; in the experiment with NCI-H23 lung, 3.7 µM; in the experiment on RPMI-8226 leukemia, over 100 µM; in the experiment with SK-MEL-2 melanoma, 6.59 µM. The TGI in the experiment with SK-OV-3 ovarian stood at 4.3 µM; in the experiment on SNB-19 CNS it was 5.34 µM; in the experiment with U251 CNS it was 2.91 µM; with UACC-257 melanoma it was 5.92 µM.
